Target: truncated recombinant AtGABA-T (no-target GABA-T) (Arabidopsis thaliana, UniProt Q94CE5)
Experiment: coupled SSADH assay, NADH at […] nm
Type: biochemical

Chain of truncated recombinant AtGABA-T (no-target GABA-T) (Q94CE5 37-504): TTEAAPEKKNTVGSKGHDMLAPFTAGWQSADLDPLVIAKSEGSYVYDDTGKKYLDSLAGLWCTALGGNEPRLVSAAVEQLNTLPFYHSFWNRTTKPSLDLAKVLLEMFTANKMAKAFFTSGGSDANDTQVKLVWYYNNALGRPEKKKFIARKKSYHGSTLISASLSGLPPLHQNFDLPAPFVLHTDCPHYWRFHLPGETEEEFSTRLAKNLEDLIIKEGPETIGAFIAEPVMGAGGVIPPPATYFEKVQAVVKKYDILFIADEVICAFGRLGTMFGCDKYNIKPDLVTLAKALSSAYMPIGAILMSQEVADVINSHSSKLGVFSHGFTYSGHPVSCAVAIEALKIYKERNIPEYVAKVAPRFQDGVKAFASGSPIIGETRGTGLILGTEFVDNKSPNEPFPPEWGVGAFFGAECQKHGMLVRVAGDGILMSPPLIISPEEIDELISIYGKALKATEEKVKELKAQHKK

Row | Ki [µM] | Structure (SMILES)
1 | 3700 ± 460 | NCC(=O)O [Glycine]
2 | 460 ± 120 | NCCC[C@H](N)C(=O)O [Ornithine]
3 | 620 ± 160 | C=CC(N)CCC(=O)O (stereo not shown) [Vigabatrin]
4 | 550 ± 130 | NCCC(=O)O [β-Alanine]
